The text below walks through data of the OligoGym collection.

HELM strings list units from the 5' end as sugar, base in round brackets, then linkage (d deoxyribose, r ribose, m 2'-O-methyl, p phosphodiester). Strings are as the collection lists them; they lack the last nucleoside at the 3' end of the tested compound. [moe] = 2'-O-(2-methoxyethyl) (MOE); [sp] = phosphorothioate linkage; [m5C] = 5-methylcytosine

This data set has as its target SCN2A. Put plainly: mouse, dose not given. Conditions: ASO.
Turning to “RNA1{[moe]([m5C])[sp].[moe]([m5C])p.[moe](A)p.[moe]([m5C])p.d(G)[sp].d([m5C])[sp].d(T)[sp].d(T)[sp].d(A)[sp].d([m5C])[sp].d(A)[sp].d(T)[sp].d([m5C])[sp].d(A)[sp].[moe](A)p.[moe](A)p.[moe]([m5C])p.[moe](A)[sp].[moe](T)}$$$$ (last 3' nucleoside missing)”, the 3 h FOB score was determined as 0 score 0-7.

As for “RNA1{[moe]([m5C])[sp].[moe]([m5C])p.[moe](G)p.[moe](A)p.[moe](A)p.[moe](T)p.d(T)[sp].d([m5C])[sp].d(T)[sp].d(A)[sp].d(T)[sp].d(T)[sp].d(T)[sp].d(T)[sp].d(A)[sp].d(T)[sp].[moe](A)p.[moe](A)[sp].[moe](A)}$$$$ (last 3' nucleoside missing)”, the 3 h FOB score stood at 0 score 0-7.

The substance “RNA1{[moe]([m5C])[sp].[moe]([m5C])p.[moe](G)p.[moe](A)p.[moe](A)p.d(T)[sp].d(T)[sp].d([m5C])[sp].d(T)[sp].d(A)[sp].d(T)[sp].d(T)[sp].d(T)[sp].d(T)[sp].d(A)[sp].[moe](T)p.[moe](A)p.[moe](A)[sp].[moe](A)}$$$$ (last 3' nucleoside missing)” displayed a 3 h FOB score of 0.67 score 0-7.

“RNA1{[moe]([m5C])[sp].[moe]([m5C])p.[moe](G)p.[moe](A)p.d(A)[sp].d(T)[sp].d(T)[sp].d([m5C])[sp].d(T)[sp].d(A)[sp].d(T)[sp].d(T)[sp].d(T)[sp].d(T)[sp].[moe](A)p.[moe](T)p.[moe](A)p.[moe](A)[sp].[moe](A)}$$$$ (last 3' nucleoside missing)” gave a 3 h FOB score of 0 score 0-7.
